Measured values from patent US7029857B1, “Processes for obtaining compounds employing SNORF72 receptors” (H. Lundbeck A/S, priority 1999, dated 2006).
No end group written: not given here.

How the values were obtained:
SNORF62 = biological target: T1, SNORF62 (Homo sapiens, UniProt Q9HB89); assay: Inositol phosphate (IP) release in SNORF62-transfected COS-7 cells; type: cell-based; design: The SNORF62 cDNA codes for a protein of 426 amino acids; expressed in transfected cells; host or cells: COS-7 (transient, DEAE-dextran)
T1 sequence (Q9HB89 1-426): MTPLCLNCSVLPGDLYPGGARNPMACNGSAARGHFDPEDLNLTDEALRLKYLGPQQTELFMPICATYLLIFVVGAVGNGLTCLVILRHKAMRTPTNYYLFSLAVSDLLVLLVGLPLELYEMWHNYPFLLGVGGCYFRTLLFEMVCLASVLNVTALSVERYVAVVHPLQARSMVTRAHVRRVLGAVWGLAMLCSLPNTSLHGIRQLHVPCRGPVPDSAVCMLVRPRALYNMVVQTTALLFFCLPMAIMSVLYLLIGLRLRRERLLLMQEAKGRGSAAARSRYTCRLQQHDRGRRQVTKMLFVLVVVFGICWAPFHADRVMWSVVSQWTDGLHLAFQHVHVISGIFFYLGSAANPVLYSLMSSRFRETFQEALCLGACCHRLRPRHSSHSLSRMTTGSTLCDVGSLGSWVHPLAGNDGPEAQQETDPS
Protocol: Human SNORF62 receptor-mediated activation and human SNORF72 receptor-mediated activation of the inositol phosphate (IP) second messenger pathways were assessed by radiometric measurement of IP products.
For example, in a 96 well microplate format assay, COS-7 cells expressing the receptor of interest were plated at a density of 70,000 cells per well and allowed to incubate for 24 hours. The cells were then labeled with 0.5 μCi [^3H]myo-inositol overnight at 37° C., 5% CO2. Immediately before the assay, the medium was removed and replaced with 180 μL of Phosphate-Buffered Saline (PBS) containing 10 mM LiCl. The plates were then incubated for 20 min at 37° C., 5% CO2. Following the incubation, the cells were challenged with agonist (20 μl/well; 10× concentration) for 30 min at 37° C. The challenge was terminated by the addition of 100 μL of 5% v/v trichloroacetic acid, followed by incubation at 4° C. for greater than 30 minutes. Total IPs were isolated from the lysate by ion exchange chromatography. Briefly, the lysed contents of the wells were transferred to a Multiscreen HV filter plate (Millipore) containing Dowex AG1-X8 (200–400 mesh, formate form). The filter plates were prepared adding 100 μL of Dowex AG1-X8 suspension (50% v/v, water: resin) to each well. The filter plates were placed on a vacuum manifold to wash or elute the resin bed. Each well was first washed 2 times with 200 μl of 5 mM myo-inositol. Total [^3H]inositol phosphates were eluted with 75 μl of 1.2M ammonium formate/0.1M formic acid solution into 96-well plates. 200 μL of scintillation cocktail was added to each well, and the radioactivity was determined by liquid scintillation counting.

SNORF72 = biological target: T2, SNORF72 (Homo sapiens, UniProt Q9GZQ4, A395T); assay: Displacement of [125I]rat NMU-23 binding in SNORF72-transfected COS-7 membranes; details: binding affinity, SNORF72-transfected COS-7 cells (Table 1A); read-out: SNORF72 Avg Ki
T2 construct: expressed in transfected cells; host or cells: COS-7 (transient, DEAE-dextran)
Protocol: The specifics of preparing such cell membranes may in some cases be determined by the nature of the ensuing assay but typically involve harvesting whole cells and disrupting the cell pellet by sonication in ice cold buffer (e.g. 20 mM Tris HCl, mM EDTA, pH 7.4 at 4° C.). The resulting crude cell lysate is cleared of cell debris by low speed centrifugation at 200×g for 5 min at 4° C. The cleared supernatant is then centrifuged at 40,000×g for 20 min at 4° C., and the resulting membrane pellet is washed by suspending in ice cold buffer and repeating the high speed centrifugation step. The final washed membrane pellet is resuspended in assay buffer. Protein concentrations are determined by the method of Bradford (1976) using bovine serum albumin as a standard. The membranes may be used immediately or frozen for later use.
Radioligand binding assays were performed by diluting membranes prepared from cells expressing the receptor in 50 mM Tris buffer (pH=7.4 at 0° C.) containing 0.1% bovine serum albumin (Sigma), aprotinin (0.005 mg/ml, Boehringer Mannheim) and bestatin (0.1 mM, Sigma) as protease inhibitors. The final protein concentration in the assay was 12–40 μg/ml. […] The bound ligand was separated from free by filtration through GF/B filters presoaked in 0.5% polyethyleneimine (PEI), using a Tomtec (Wallac) vacuum filtration device. After addition of Ready Safe (Beckman) scintillation fluid, bound radioactivity was quantitated using a Trilux (Wallac) scintillation counter (approximately 40% counting efficiency of bound counts). Data was fit to non-linear curves using GraphPad Prism.
In this manner, agonist or antagonist compounds that bind to the receptor may be identified as they inhibit the binding of the labeled ligand to the membrane protein of cells expressing the said receptor. Non-specific binding was defined as the amount of radioactivity remaining after incubation of membrane protein in the presence of 100 nM of the unlabeled peptide corresponding to the radioligand used. In equilibrium saturation binding assays membrane preparations or intact cells transfected with the receptor are incubated in the presence of increasing concentrations of the labeled compound to determine the binding affinity of the labeled ligand.

Substance: FRVDEEFQSPFASQSRGYFLFRPRN-NH2 [human NMU-25, FRVDEEFQSPFASQSRGYFLFRPRN—NH2]
- release of IP second messengers above basal (SNORF62): approximately 2 fold
- Ki (SNORF72): 3 nM
